In general, IC50 refers to the point on the concentration scale where inhibition reaches its midpoint.

IC50 data for 14 compounds are collected here from US7951836B2, “Substituted phenyl methanone derivatives” (Hoffmann-La Roche Inc., priority 2006, dated 2011).

One assay addresses T1, mGlyT-1b (Mus musculus, UniProt P28571).
T1 construct: host or cells: Flp-in-CHO
T1 sequence (P28571 1-651 isoform P28571-2): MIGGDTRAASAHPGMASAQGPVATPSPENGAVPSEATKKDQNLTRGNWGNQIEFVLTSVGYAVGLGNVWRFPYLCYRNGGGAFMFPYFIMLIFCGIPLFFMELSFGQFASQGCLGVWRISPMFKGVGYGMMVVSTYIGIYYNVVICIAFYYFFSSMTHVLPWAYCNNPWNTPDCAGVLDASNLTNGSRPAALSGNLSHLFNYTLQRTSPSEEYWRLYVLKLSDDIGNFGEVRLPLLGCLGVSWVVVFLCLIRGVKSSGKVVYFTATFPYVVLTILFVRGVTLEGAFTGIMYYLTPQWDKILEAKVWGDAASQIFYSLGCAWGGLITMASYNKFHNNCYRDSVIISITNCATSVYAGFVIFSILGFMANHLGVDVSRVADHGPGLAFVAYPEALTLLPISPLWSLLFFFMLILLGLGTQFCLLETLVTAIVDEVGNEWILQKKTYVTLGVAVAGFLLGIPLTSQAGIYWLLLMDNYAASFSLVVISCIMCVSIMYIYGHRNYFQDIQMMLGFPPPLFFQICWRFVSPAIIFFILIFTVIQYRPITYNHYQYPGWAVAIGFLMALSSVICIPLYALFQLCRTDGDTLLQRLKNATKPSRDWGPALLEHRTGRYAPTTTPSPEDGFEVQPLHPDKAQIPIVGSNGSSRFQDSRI
Kind of assay: Glycine uptake inhibition assay (mGlyT-1b). Type of assay: cell-based.
Conditions: not given
As for the experimental part: DMEM complete medium: Nutrient mixture F-12 (Gibco Life-technologies), fetal bovine serum (FBS) 5%, (Gibco life technologies), Penicillin/Streptomycin 1% (Gibco life technologies), Hygromycin 0.6 mg/ml (Gibco life technologies), Glutamine 1 mM Gibco life technologies) Uptake buffer (UB): 150 mM NaCl, 10 mM Hepes-Tris, pH 7.4, 1 mM CaCl2, 2.5 mM KCl, 2.5 mM MgSO4, 10 mM (+) D-glucose. Flp-inTM-CHO (Invitrogen Cat n° R758-07) cells stably transfected with mGlyT1b cDNA. Glycine Uptake Inhibition […]) On day 1 mammalian cells, (Flp-inTM-CHO), transfected with […] cDNA, were plated at the density of 40,000 cells/well in complete F-12 medium, without hygromycin in 96-well culture plates. On day 2, the medium was aspirated and the cells were washed twice with uptake buffer (UB). The cells were then incubated for 20 min at 22° C. with either (i) no potential competitor, (ii) 10 mM non-radioactive glycine, (iii) a concentration of a potential inhibitor. A range of concentrations of the potential inhibitor was used to generate data for calculating the concentration of inhibitor resulting in 50% of the effect (e.g. […] The plates were incubated with gentle shaking, and the reaction was stopped by aspiration of the mixture and washing (three times) with ice-cold UB. The cells were lysed with scintillation liquid, shaken 3 hours and the radioactivity in the cells was counted using a scintillation counter.
The compound `C[C@H](Oc1ccc(S(C)(=O)=O)cc1C(=O)N1CCC(COc2ccc(Cl)cc2)C1)C(F)(F)F` (mixture of isomers) [Example 29, rac-[3-(4-Chloro-phenoxymethyl)-pyrrolidin-1-yl]-[5-methanesulfonyl-2-((S)-2,2,2-trifluoro-1-methyl-ethoxy)-phenyl]-methanone] yielded an IC50 of 0.2 µM.

The compound `C[C@H](Oc1ccc(S(C)(=O)=O)cc1C(=O)N1CCC(COc2ccc(C#N)cc2)C1)C(F)(F)F` (mixture of isomers) [Example 32, rac-4-{1-[5-Methanesulfonyl-2-((S)-2,2,2-trifluoro-1-methyl-ethoxy)-benzoyl]-pyrrolidin-3-ylmethoxy}-benzonitrile] registered an IC50 of 0.21 µM.

The same assay, now with this note: [3H]-glycine uptake in Flp-in-CHO cells stably transfected with mGlyT1b cDNA; 20 min preincubation at 22° C.; read-out: IC50 (μM) at GlyT-1.
On to `C[C@H](Oc1ccc(S(C)(=O)=O)cc1C(=O)N1CCC(c2ccc(C(F)(F)F)cc2)C1)C(F)(F)F` (mixture of isomers) [Example 2, rac-[5-Methanesulfonyl-2-((S)-2,2,2-trifluoro-1-methyl-ethoxy)-phenyl]-[3-(4-trifluoromethyl-phenyl)-pyrrolidin-1-yl]-methanone], for which the IC50 amounted to 0.22 µM.

`C[C@H](Oc1ccc(S(C)(=O)=O)cc1C(=O)N1CCC(Cc2ccc(C(F)(F)F)cc2)C1)C(F)(F)F` (mixture of isomers) [Example 11, rac-[5-Methanesulfonyl-2-((S)-2,2,2-trifluoro-1-methyl-ethoxy)-phenyl]-[3-(4-trifluoromethyl-benzyl)-pyrrolidin-1-yl]-methanone]: the IC50 is 0.11 µM.

Consider `CS(=O)(=O)c1ccc(OCC(F)(F)C(F)(F)F)c(C(=O)N2CCC(Cc3ccc(C(F)(F)F)cc3)C2)c1` (racemic) [Example 13, rac-[5-Methanesulfonyl-2-(2,2,3,3,3-pentafluoro-propoxy)-phenyl]-[3-(4-trifluoromethyl-benzyl)-pyrrolidin-1-yl]-methanone], for which the IC50 is 0.09 µM.

For `CS(=O)(=O)c1ccc(-c2ccc(F)cc2)c(C(=O)N2CCC(Cc3ccc(C(F)(F)F)cc3)C2)c1` (racemic) [Example 14, rac-(4′-Fluoro-4-methanesulfonyl-biphenyl-2-yl)-[3-(4-trifluoromethyl-benzyl)-pyrrolidin-1-yl]-methanone], the IC50 was found to be 0.5 µM.

Take `CS(=O)(=O)c1ccc(OCC2CCC2)c(C(=O)N2CCC(Cc3ccc(C(F)(F)F)cc3)C2)c1` (racemic) [Example 15, rac-(2-Cyclobutylmethoxy-5-methanesulfonyl-phenyl)-[3-(4-trifluoromethyl-benzyl)-pyrrolidin-1-yl]-methanone]: the IC50 came out at 0.24 µM.

On to `CS(=O)(=O)c1ccc(OC2CCCC2)c(C(=O)N2CCC(Cc3ccc(C(F)(F)F)cc3)C2)c1` (racemic) [Example 16, rac-(2-Cyclopentyloxy-5-methanesulfonyl-phenyl)-[3-(4-trifluoromethyl-benzyl)-pyrrolidin-1-yl]-methanone], for which the IC50 was found to be 0.32 µM.

In the case of `Cc1ccc(OCC2CCN(C(=O)c3cc(S(C)(=O)=O)ccc3O[C@@H](C)C(F)(F)F)C2)cc1` (mixture of isomers) [Example 30, rac-[5-Methanesulfonyl-2-((S)-2,2,2-trifluoro-1-methyl-ethoxy)-phenyl]-(3-p-tolyloxymethyl-pyrrolidin-1-yl)-methanone], the IC50 was found to be 0.27 µM.

Regarding `C[C@H](Oc1ccc(S(C)(=O)=O)cc1C(=O)N1CCC(COc2ccc(-c3ccccc3)cc2)C1)C(F)(F)F` (mixture of isomers) [Example 31, rac-[3-(Biphenyl-4-yloxymethyl)-pyrrolidin-1-yl]-[5-methanesulfonyl-2-((S)-2,2,2-trifluoro-1-methyl-ethoxy)-phenyl]-methanone], the IC50 was determined as 0.45 µM.

Consider `C[C@H](Oc1ccc(S(C)(=O)=O)cc1C(=O)N1CCC(COc2ccc([N+](=O)[O-])cc2)C1)C(F)(F)F` (mixture of isomers) [Example 33, rac-[5-Methanesulfonyl-2-((S)-2,2,2-trifluoro-1-methyl-ethoxy)-phenyl]-[3-(4-nitro-phenoxymethyl)-pyrrolidin-1-yl]-methanone], for which the IC50 was 0.17 µM.

Consider `C[C@H](Oc1ccc(S(C)(=O)=O)cc1C(=O)N1CCC(COc2ccc(OC(F)(F)F)cc2)C1)C(F)(F)F` (mixture of isomers) [Example 35, rac-[5-Methanesulfonyl-2-((S)-2,2,2-trifluoro-1-methyl-ethoxy)-phenyl]-[3-(4-trifluoromethoxy-phenoxymethyl)-pyrrolidin-1-yl]-methanone], for which the IC50 was determined as 0.13 µM.

In the case of `C[C@H](Oc1ccc(S(C)(=O)=O)cc1C(=O)N1CCC(COc2ccc(Cl)c(Cl)c2)C1)C(F)(F)F` (mixture of isomers) [Example 36, rac-[3-(3,4-Dichloro-phenoxymethyl)-pyrrolidin-1-yl]-[5-methanesulfonyl-2-((S)-2,2,2-trifluoro-1-methyl-ethoxy)-phenyl]-methanone], the IC50 worked out at 0.13 µM.

`COc1cccc(OCC2CCN(C(=O)c3cc(S(C)(=O)=O)ccc3O[C@@H](C)C(F)(F)F)C2)c1` (mixture of isomers) [Example 37, rac-[5-Methanesulfonyl-2-((S)-2,2,2-trifluoro-1-methyl-ethoxy)-phenyl]-[3-(3-methoxy-phenoxymethyl)-pyrrolidin-1-yl]-methanone]: the IC50 was determined as 0.17 µM.
